PubChem BioAssay AID651703 (Broad Institute, 2012)
Where “and” joins values, the source holds several entries; their conditions need not be identical. Equal entries are not always repeated.

These compounds were tested against Transforming acidic coiled-coil-containing protein 3 (Homo sapiens) (UniProt Q9Y6A5) (assay: ARNT/TACC3 interaction disruptors, potency, confirmation, biochemical, AlphaScreen, cherry-picked samples (AID 651703;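 also: TACC3 partner is the GST-tagged E629A mutant dimer; hits lower the signal meaning they disrupt ARNT binding to TACC3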)). Conditions: AlphaScreen His-ARNT PAS-B / GST-TACC3 binding, luminescence.

Row | Structure (SMILES) | AC50
1 | Cc1ccc(-c2cnc(N)n2C)cc1C | 41.1 µM
2 | Cc1[nH]n(-c2ccccc2)c(=O)c1/C=N/NC(=O)c1cccc(F)c1 | 9.69 µM
3 | COc1cc(CNCc2ccccn2)ccc1OCc1cccc(Cl)c1 | 62.6 µM
4 | COc1cc(C2C(C#N)=C(N)Oc3n[nH]c(-c4ccccn4)c32)cc(OC)c1OC (centres undefined) | 19.7 µM
5 | C[C@@H](Nc1nc(-c2ccccn2)nnc1-c1ccccc1)C1CCCCC1 | 2.26 µM
6 | O=C(N[C@H]1CC[C@H](CCn2cc(-c3ccccn3)nn2)O[C@@H]1CO)c1ccncc1 | 14.8 µM
7 | NC1=NN=C(N2N=C(c3ccco3)CC2(O)C(F)(F)F)n2ncnc2C1 (centres undefined) | 12 µM
8 | FC(F)(F)c1cnc(C(c2ccccn2)c2ncn[nH]2)c(Cl)c1 (centres undefined) | 3.93 µM
9 | CCOc1ccc(N(CC(=O)Nc2ccc(OC)cc2OC)S(=O)(=O)c2c(C)[nH]c(=O)[nH]c2=O)cc1 | 27.6 µM
10 | CCOc1ccc(NC(=O)c2c(NC(=O)CNCCN3CCOCC3)sc3c2CCC3)cc1 | 14.6 µM
11 | CCSc1nnc(NC(=O)c2ccccn2)s1 | 3.61 µM
12 | O=C(CN1C(=O)C2CCCCC2C1=O)Nc1nc(-c2ccccn2)cs1 (centres undefined) | 5.15 µM
13 | NCCc1cnc[nH]1 | 23.1 µM
14 | O=C(N[C@@H]1CC[C@H](CCn2cc(-c3ccccn3)nn2)O[C@H]1CO)c1ccc(F)cc1 | 14.3 µM
15 | Cc1cccc(NC(=O)CSc2ccc(-c3ccccn3)nn2)c1C | 2.86 µM
16 | CCC(=O)NC(c1ccc(C)cc1)c1cc([N+](=O)[O-])c2cccnc2c1O (centres undefined) | 3.54 µM
17 | c1cncc(-c2nc(NCCCn3ccnc3)c3ccccc3n2)c1 | 16.2 µM
18 | O=C(O)C1Nc2c(O)cc(Cl)c([N+](=O)[O-])c2C2C=CCC12 (centres undefined) | 28.1 µM
19 | c1ccc(-c2nc3ccccn3c2NC2CCCC2)nc1 | 13.9 µM
20 | O=C(CSC1=NNC(c2ccccn2)S1)Nc1ccccc1 (centres undefined) | 0.823 µM
21 | O=C(CSc1n[nH]c(-c2ccccn2)n1)Nc1ccccc1 | 0.706 µM
22 | COc1cc(CNCc2ccccn2)ccc1OCc1ccc(Cl)cc1Cl | 36.6 µM
23 | Cn1cccc1C(=O)Nc1nc(-c2ccccn2)cs1 | 5.3 µM

Row | Structure (SMILES) | AC50
24 | c1ccc(-c2nnc(-c3ccccn3)nc2NCCc2ccccn2)cc1 | < 0.5 µM
25 | CC1CC1C(=O)Nc1nc(-c2ccccn2)cs1 (centres undefined) | 15.2 µM
26 | O=C(NC[C@@H]1[C@H](c2ccccc2)[C@H](CO)N1Cc1ccccn1)C1CCCC1 | 40.7 µM
27 | O=C(NCCCn1ccnc1)Nc1cccc(Cl)c1 | 9.64 µM
28 | CN(Cc1ccccc1)CC(O)COc1ccc(CNCc2nccn2C)cc1 (centres undefined) | 47.9 µM
29 | Cc1ccn2c(Nc3ccccc3C)c(-c3ccccn3)nc2c1 | 3.69 µM
30 | COc1ccc2nc(/N=C/c3c(C)[nH]n(-c4ccc(C)cc4)c3=O)sc2c1 | 46.3 µM
31 | Cc1cccc(CNC(=O)c2cc(-c3ccccc3)on2)c1 | 23.4 µM
32 | Cc1ccc(S(=O)(=O)/N=C2\C=C(Nc3ccc(O)cc3)C(=O)c3ccccc32)cc1 | 3.43 µM
33 | CC(C)(C)C1=CC(=Nc2ccccc2N)C=C(C(C)(C)C)C1=O | 1.47 µM
34 | COc1ccc(C2CC(=O)Oc3c(C(CCN4CCCCC4)c4ccc(N(C)C)cc4)c(OC)cc(OC)c32)cc1 (centres undefined) | 10.2 µM
35 | CC(Oc1cccc(Cl)c1)C(=O)Nc1nc(-c2ccccn2)cs1 (centres undefined) | 18 µM
36 | Oc1ccc(/C=N/Nc2ncc(Br)cn2)c(O)c1 | 6.19 µM
37 | O=[N+]([O-])c1ccc(O)c(-c2nn[nH]n2)c1 | 14 µM
38 | COc1cc(CNCc2ccccn2)ccc1OCC(=O)NC(C)(C)C | 26.4 µM
39 | CC(C)COCc1ccc(O)c2ncccc12 | 3.53 µM
40 | COc1cc(CCNC2=CC(=O)c3ncccc3C2=O)ccc1O | 34.8 µM
41 | O=C(C1CCCC1)N1C[C@@H]2[C@H](c3ccccc31)[C@H](CO)N2C(=O)Cc1ccccn1 | 67.4 µM
42 | O=C(Nc1ccc(Cl)cc1)O/N=C(\c1ccccc1)c1ccccn1 | 17.6 µM
43 | O=C(CSc1nnc(-c2cccnc2)o1)Nc1nccs1 | 17.7 µM
44 | Cc1cc(NC(c2ccc(Cl)cc2)c2ccc3cccnc3c2O)no1 (centres undefined) | 10.2 µM
45 | O=C(CNCc1ccccn1)Nc1cc(C(F)(F)F)ccc1N1CCOCC1 | 17.4 µM
46 | Cc1nnc(SCC(=O)Nc2nnc(-c3ccccc3)o2)s1 | 16.4 µM

Row | Structure (SMILES) | AC50
47 | CCCC(=O)NC(c1cccs1)c1cc([N+](=O)[O-])c2cccnc2c1O (centres undefined) | 3.51 µM
48 | c1ccc(-c2nn[nH]n2)nc1 | 5.22 µM
49 | CC(C)C1Cc2c(sc3ncnc(NN)c23)CO1 (centres undefined) | 7.67 µM
50 | CCCC(=O)NC(c1ccco1)c1cc([N+](=O)[O-])c2cccnc2c1O (centres undefined) | 8.21 µM
51 | Oc1ccc(CNC2CCc3ccccc32)c2cccnc12 (centres undefined) | 1.22 µM
52 | O=C(CCS(=O)(=O)c1ccccc1)Nc1nc(-c2ccccn2)cs1 | 11.2 µM
53 | NNc1nnc(-c2ccccc2)c(-c2ccccc2)n1 | 8.66 µM
54 | CCOC(=O)c1cnc(Nc2nc3ccccc3o2)nc1CN1CCN(C)CC1 | 6.81 µM
55 | c1ccc(-c2cccc(CNc3nc(-c4ccccn4)nnc3-c3ccccc3)c2)cc1 | 2.28 µM
56 | COc1ccc(NC(=O)Nc2ccc3c(c2)CC(=O)N([C@@H](C)CO)C[C@@H](C)[C@H](CN(C)Cc2ccc(Oc4ccccc4)cc2)O3)cc1 | 23.2 µM
57 | O=C(Cc1ccccc1)Nc1nnc(-c2ccco2)o1 | 56.9 µM
58 | Fc1ccc(-c2ccc(CNCc3ccccn3)o2)cc1Cl | 17.5 µM
59 | CN1CCC(=O)N(CCOc2ccccc2)CC1 | 4.44 µM
60 | COc1cc2c(cc1OC)-c1c3c(cc4c1[C@@H](C2)N(C)CC4)OCO3 | 17.6 µM
61 | Cn1nc(-c2ccccn2)nc2c(=O)n(C)c(=O)nc1-2 | < 0.5 µM
62 | CN1CCc2c(sc3c2C(=O)NC(c2ccccn2)N3)C1 (centres undefined) | 5.51 µM
63 | CCCC(=O)NC(c1ccc(N(C)C)cc1)c1ccc2cccnc2c1O (centres undefined) | 5.3 µM
64 | CC(=O)NC(c1ccco1)c1cc(F)c2cccnc2c1O (centres undefined) | 5.76 µM
65 | O=C(NC[C@H]1[C@@H](c2ccccc2)[C@@H](CO)N1Cc1ccccn1)C1CC1 | 48.4 µM
66 | O=C(N[C@@H]1CC[C@@H](CCn2cc(-c3ccccn3)nn2)O[C@H]1CO)c1ccncc1 | 16.7 µM
67 | COc1ccccc1Nc1cc2cc(Br)ccc2c(=O)[nH]1 | 16.8 µM
68 | COc1ccccc1C(CCNCc1ccc(N(C)C)cc1)c1ccc(OC(C)C)cc1 (centres undefined) | 7.83 µM
69 | Cc1ccccc1CNc1nc(-c2ccccn2)nnc1-c1ccccc1 | 0.647 µM

Row | Structure (SMILES) | AC50
70 | Oc1ccc(CN2CCc3ccccc3C2)c2cccnc12 | 0.919 µM and 1.08 µM and 2.25 µM
71 | COc1cccc(/C=N/Nc2nc3ccccc3[nH]2)c1O | 26.6 µM
72 | O=C(CNS(=O)(=O)c1ccc([N+](=O)[O-])cc1)N/N=C/c1ccc(O)cc1O | 19.2 µM
73 | OCCCNc1nc(-c2ccccn2)nnc1-c1ccccc1 | < 0.5 µM
74 | COc1ccc2nc(-c3ccccn3)[nH]c2c1 | 29 µM
75 | COc1cc(C(=O)NCc2nnc(SCC(=O)Nc3nccs3)o2)cc(OC)c1OC | 58.8 µM
76 | Cc1nc2ccccc2n1CC(=O)c1ccc(O)c(O)c1 | 49.8 µM
77 | O=C(N/N=C/c1sc2ccccc2c1O)c1cccc2ccccc12 | 23 µM
78 | Oc1c(C(c2ccccn2)N2CCCCC2)cc(Cl)c2cccnc12 (centres undefined) | 1.33 µM
79 | CCc1ccc(NC(=O)CSc2ccc(-c3ccccn3)nn2)cc1 | 4.37 µM
80 | Cc1ccc2nc(-c3ccccn3)c(NC3CCCC3)n2c1 | 10.2 µM
81 | COc1ccccc1NC(=O)CSc1ccc(-c2ccccn2)nn1 | 3.1 µM
82 | O=C(Nc1nnc(C2CC2)o1)c1ccc(S(=O)(=O)N2CCCCC2)cc1 | 18.4 µM
83 | C[C@H]1CN([C@@H](C)CO)C(=O)Cc2cc(NC(=O)Nc3cccc4ccccc34)ccc2O[C@@H]1CN(C)Cc1ccc(Oc2ccccc2)cc1 | 47.3 µM
84 | COc1cccc(/C=N/n2c(-c3n[nH]c4c3CCC4)n[nH]c2=S)c1O | 28.7 µM
85 | Cc1[nH]n(-c2ccccc2)c(=O)c1/C=N/NC(=O)COc1ccccc1[N+](=O)[O-] | 15.8 µM
86 | Cc1oc(C(=O)O)cc1COc1cccc2cccnc12 | 36.6 µM
87 | c1ccc(N=Nc2ccc3cccccc2-3)cc1 | 1.68 µM
88 | O=C(CSc1n[nH]c(-c2ccccn2)n1)Nc1ccc(Cl)cc1 | 2.08 µM
89 | Cc1cccc(Nc2nc(-c3ccccn3)cs2)n1 | 6.95 µM
90 | C[C@@H]1CCCCO[C@@H](CN(C)C(=O)Nc2cccc3ccccc23)[C@H](C)CN([C@@H](C)CO)C(=O)c2cc(NS(=O)(=O)c3cn(C)cn3)ccc2O1 | 56.4 µM
91 | O=C(NC[C@H]1[C@@H](c2ccccc2)[C@@H](CO)N1Cc1ccccn1)C1CCC1 | 51.5 µM
92 | O=C(Nc1nc(-c2ccccn2)cs1)c1ccc([N+](=O)[O-])o1 | 11.1 µM

Row | Structure (SMILES) | AC50
93 | O=C(N[C@H]1CC[C@@H](CCn2cc(-c3ccccn3)nn2)O[C@H]1CO)c1ccccc1 | 12.1 µM
94 | O=C(CSc1cccc2cccnc12)Nc1cc(C(=O)O)cc(C(=O)O)c1 | 17.9 µM
95 | Cc1ccc(Nc2nc(-c3ccccn3)nnc2-c2ccccc2)cn1 | < 0.5 µM
96 | COc1ccc(C2C(C#N)=C(N)Oc3c2ccc2cccnc32)cc1OC (centres undefined) | 58.6 µM
97 | CCOc1ccc(NC(=O)CC(NCc2ccccn2)C(=O)O)cc1 (centres undefined) | < 0.5 µM
98 | O=C(Nc1nc(-c2ccccn2)cs1)C1COc2ccccc2O1 (centres undefined) | 5.46 µM
99 | O=C(Nc1ccc(N2CCN(C(=O)c3ccccc3F)CC2)cc1)c1ncn[nH]1 | 17.8 µM
100 | N[C@@H]1CC[C@H](CCn2cc(-c3ccccn3)nn2)O[C@H]1CO | 1.13 µM
101 | O=C(NCCCn1ccnc1)C(F)(F)C(F)(F)C(=O)NCCCn1ccnc1 | 38.5 µM
102 | COCCN=c1scc(-c2ccco2)n1/N=C/c1ccc(O)c(O)c1O | 9.77 µM
103 | O=S(=O)(c1ccccc1)N1C[C@H]2[C@@H](c3ccccc31)[C@@H](CO)N2Cc1ccccn1 | 52.3 µM
104 | Cc1ccc(C)c(CSc2ccc3nnc(-c4ccccn4)n3n2)c1 | 23.3 µM
105 | CCOc1cc2c(C#N)c(N3CCOCC3)nc(N)c2c(N)n1 | 30.4 µM
106 | O=C(N[C@@H]1CC[C@@H](CCn2cc(-c3ccccn3)nn2)O[C@@H]1CO)c1ccncc1 | 10.3 µM
107 | COc1cc(/C=N/N(CCO)C2=NS(=O)(=O)c3ccccc32)cc(OC)c1OC | 15.6 µM
108 | Cc1cccc(NC(=O)CSc2cccc3cccnc23)c1C | 33.7 µM
109 | O=C(CN1CC(=O)Oc2ccccc21)NCc1ccco1 | 2.05 µM
110 | CCc1cc(C(=O)Nc2nc(-c3ccccn3)cs2)sc1C | 22.9 µM
111 | COc1ccc(C(=O)Nc2nc(-c3ccccn3)cs2)cc1S(=O)(=O)N1CCOCC1 | 3.13 µM
112 | COc1ccc(S(=O)(=O)N2CCCOC2CNC(=O)C(=O)NCCCn2ccnc2)cc1OC (centres undefined) | 47.2 µM
113 | CC(C)C(=O)NC(c1cccc([N+](=O)[O-])c1)c1ccc2cccnc2c1O (centres undefined) | 3.82 µM
114 | c1ccc(-c2nnc(-c3ccccn3)nc2N2CCC(C3CCCCC3)C2)cc1 (centres undefined) | 2.68 µM
